Calls of active or inactive are those of the source.
Key:
[1] = target: T1, Calpain-2 catalytic subunit (Sus scrofa, UniProt P43367); experiment: pig calpain II inhibitor potency, dose response, biochemical, fluorogenic peptide substrate (AID 1420); type: functional
T1 sequence (P43367 whole entry): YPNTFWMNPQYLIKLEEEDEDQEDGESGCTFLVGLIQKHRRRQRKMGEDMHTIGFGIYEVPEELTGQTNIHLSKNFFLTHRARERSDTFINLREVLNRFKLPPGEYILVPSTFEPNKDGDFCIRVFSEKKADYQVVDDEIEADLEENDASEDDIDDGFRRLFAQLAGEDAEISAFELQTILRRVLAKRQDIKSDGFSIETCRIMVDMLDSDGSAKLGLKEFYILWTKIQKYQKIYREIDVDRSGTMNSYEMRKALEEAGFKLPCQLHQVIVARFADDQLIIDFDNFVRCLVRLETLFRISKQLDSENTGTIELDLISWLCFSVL

[2] = A Cell Based Secondary Assay To Explore Cytotoxicity of Compounds that Sensitize Mycobacterium Tuberculosis to Beta-Lactam Antibiotics.; type: functional
SUMO-activating enzyme [3] = target: T2, SUMO-activating enzyme (Homo sapiens, UniProt Q9UBT2); experiment: inhibitors of in vitro SUMOylation cascade, primary screen, biochemical, HTRF, uHTS (AID 2006); type: protein-complex assay
[4] = target: T3, Serine/threonine-protein phosphatase (Homo sapiens, UniProt Q9BPW0); experiment: Counterscreen for inhibitors of PP1: fluorescence-based biochemical high throughput dose response assay to identify inhibitors of Protein Phosphatase 5 (PP5). [Related pubchem assays: 2034 (Summary (PP5 inhibitors)), 1987 (PP5 inhibitors in singlate), 2235 (PP1 inhibitors in singlate)]
T3 sequence (Q9BPW0 whole entry): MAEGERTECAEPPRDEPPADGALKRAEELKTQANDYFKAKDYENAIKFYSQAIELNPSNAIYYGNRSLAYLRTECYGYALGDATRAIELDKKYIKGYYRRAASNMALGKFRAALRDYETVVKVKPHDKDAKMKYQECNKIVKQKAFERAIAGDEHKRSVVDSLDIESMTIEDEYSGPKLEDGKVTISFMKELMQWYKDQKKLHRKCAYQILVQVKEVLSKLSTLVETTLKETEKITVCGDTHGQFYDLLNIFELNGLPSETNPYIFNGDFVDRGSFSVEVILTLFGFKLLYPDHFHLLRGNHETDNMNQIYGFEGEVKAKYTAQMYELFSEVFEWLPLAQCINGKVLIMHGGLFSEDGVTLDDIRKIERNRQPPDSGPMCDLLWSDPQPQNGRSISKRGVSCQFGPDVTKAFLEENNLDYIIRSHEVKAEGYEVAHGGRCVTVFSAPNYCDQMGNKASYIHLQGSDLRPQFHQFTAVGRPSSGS

[5] = target: Serine/threonine-protein phosphatase PP1-alpha catalytic subunit (Homo sapiens, UniProt P62136); experiment: PP1 phosphatase inhibitors, dose response, biochemical, fluorescence (AID 2403);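 also: phosphatase turnover of OMFP into fluorescent 3-O-methylfluorescein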
SUMO-activating enzyme [6] = target: T2, SUMO-activating enzyme; experiment: SUMOylation inhibitor hit validation, confirmation, SUMOylation inhibitor project, biochemical, AlphaScreen (AID 2018); type: functional
[7] = target: Eukaryotic translation initiation factor 4H (Homo sapiens, UniProt Q15056); experiment: human eIF4H binding inhibitors, primary screen, translation initiation inhibitor project, biochemical, uHTS, fluorescence polarization (AID 2012)
[8] = target: Polyadenylate-binding protein 1 (Homo sapiens, UniProt P11940); experiment: PABP poly(A) RNA binding inhibitors, primary screen, biochemical, fluorescence polarization, uHTS (AID 2014)
[9] = target: T4, Epstein-Barr nuclear antigen 1 (Epstein-Barr virus (strain B95-8) (HHV-4) (Human herpesvirus 4), UniProt P03211); experiment: EBNA-1 inhibitors, dose response, biochemical, fluorescence polarization, 1536-well (AID 2381); design: species or system human gammaherpesvirus 4;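 also: fluorescence polarization of a Cy5 DNA probe bound by EBNA-1 protein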
T4 sequence (P03211 whole entry): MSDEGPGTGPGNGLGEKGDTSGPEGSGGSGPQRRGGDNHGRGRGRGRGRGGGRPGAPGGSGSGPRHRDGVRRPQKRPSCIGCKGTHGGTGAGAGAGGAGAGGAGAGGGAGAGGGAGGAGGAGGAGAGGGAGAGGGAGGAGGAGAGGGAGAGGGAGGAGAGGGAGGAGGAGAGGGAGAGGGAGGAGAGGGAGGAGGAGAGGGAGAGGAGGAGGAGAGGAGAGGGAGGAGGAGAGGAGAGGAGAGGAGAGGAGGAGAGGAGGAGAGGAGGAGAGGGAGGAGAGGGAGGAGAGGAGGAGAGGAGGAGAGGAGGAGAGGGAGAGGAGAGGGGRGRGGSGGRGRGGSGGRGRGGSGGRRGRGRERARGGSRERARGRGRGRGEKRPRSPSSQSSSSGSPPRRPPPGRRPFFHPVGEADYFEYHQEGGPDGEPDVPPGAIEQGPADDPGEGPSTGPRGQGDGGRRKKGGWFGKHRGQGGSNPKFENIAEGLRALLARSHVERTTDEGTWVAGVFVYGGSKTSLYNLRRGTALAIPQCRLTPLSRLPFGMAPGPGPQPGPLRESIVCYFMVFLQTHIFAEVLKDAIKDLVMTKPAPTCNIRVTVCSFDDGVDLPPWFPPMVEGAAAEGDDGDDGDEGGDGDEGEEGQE

[10] = target: Peroxisome proliferator-activated receptor gamma/Nuclear receptor coactivator 1 (Homo sapiens, UniProt P37231); experiment: (§1) TR-FRET dose response biochemical High Throughput Screening assay for agonists of the steroid receptor coactivator 1 (SRC-1) recruitment by the peroxisome proliferator-activated receptor gamma (PPAR gamma): non-selective agonists. [Related pubchem assays (depositor defined):AID1300, AID1808, AID504735, AID631]; type: protein assay
[11] = target: Peroxisome proliferator-activated receptor gamma/Nuclear receptor coactivator 3 (Homo sapiens, UniProt P37231); experiment: as §1, with “3 (SRC-3)” for “1 (SRC-1)”, “assays: 1301 (Confirmation screen.), 1048 (Primary screen.)]” for “assays (depositor defined):AID1300, AID1808, AID504735, AID631]”; type: functional
[12] = target: T5, Lytic switch protein BZLF1 (Epstein-Barr virus (strain B95-8) (HHV-4) (Human herpesvirus 4), UniProt P03206); experiment: EBV ZTA inhibitors, dose response, counter-screen for EBNA-1 inhibitor project, biochemical, fluorescence polarization, Epstein-Barr virus, 1536-well (AID 2377); design: species or system human gammaherpesvirus 4;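 also: fluorescence polarization of Cy5-labelled ZRE DNA probe bound by purified Zta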
T5 sequence (P03206 whole entry): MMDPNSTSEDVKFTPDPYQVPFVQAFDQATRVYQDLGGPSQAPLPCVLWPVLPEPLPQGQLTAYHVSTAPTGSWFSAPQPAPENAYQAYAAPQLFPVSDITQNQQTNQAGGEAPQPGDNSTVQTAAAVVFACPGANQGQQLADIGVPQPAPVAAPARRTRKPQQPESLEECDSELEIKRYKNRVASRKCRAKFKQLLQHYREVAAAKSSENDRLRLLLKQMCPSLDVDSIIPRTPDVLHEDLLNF

[13] = target: Peroxisome proliferator-activated receptor gamma/Nuclear receptor coactivator 2 (Homo sapiens, UniProt P37231); experiment: TR-FRET dose response biochemical High Throughput Screening assay for agonists of the steroid receptor coactivator 2 (SRC-2) recruitment by the peroxisome proliferator-activated receptor gamma (PPAR gamma): non-selective agonists. [Related pubchem assays: 1297, 1032 ]; type: functional
Streptococcus = experiment: Group A Streptococcus viability loss, dose response, counter-screen for streptokinase expression inhibitor project, luminescence, BacTiterGlo (AID 1915); type: functional, organism-based;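 also: potency for reduction of bacterial viability or growth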
[14] = test system: Streptococcus sp. 'group A'; experiment: growth inhibition of control SK(-) GAS strain, dose response, counter-screen for streptokinase expression inhibitor project, luminescence, kanamycin, BacTiterGlo, confirmation (AID 1900); type: functional, organism-based
Streptokinase A = target: T6, Streptokinase A (Streptococcus pyogenes serotype M1, UniProt P10520); experiment: S. pyogenes streptokinase expression inhibitors, potency, dose response, plasminogen activation absorbance, OD405 (AID 1914); type: functional, Streptococcus pyogenes M1 GAS;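 also: secreted streptokinase activity via plasminogen activation per viability signal from cell pellet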
T6 sequence (P10520 whole entry): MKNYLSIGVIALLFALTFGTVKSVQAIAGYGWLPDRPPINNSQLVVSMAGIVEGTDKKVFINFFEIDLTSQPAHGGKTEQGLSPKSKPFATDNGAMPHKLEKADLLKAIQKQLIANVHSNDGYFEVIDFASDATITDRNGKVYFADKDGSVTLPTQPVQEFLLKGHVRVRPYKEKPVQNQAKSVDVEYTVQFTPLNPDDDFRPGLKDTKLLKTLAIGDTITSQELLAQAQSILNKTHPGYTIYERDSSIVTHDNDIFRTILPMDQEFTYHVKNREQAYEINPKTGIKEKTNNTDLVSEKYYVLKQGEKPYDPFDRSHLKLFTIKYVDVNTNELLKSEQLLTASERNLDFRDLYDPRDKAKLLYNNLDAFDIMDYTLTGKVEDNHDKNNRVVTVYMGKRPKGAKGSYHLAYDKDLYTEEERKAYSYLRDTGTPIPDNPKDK

[15] = target: Luciferin 4-monooxygenase (Photinus pyralis, UniProt P08659); experiment: Counter Screen for Luciferase-based Assay Positives. [Related pubchem assays: 620, 618, 411 ]
[16] = inhibitors of firefly luciferase expression or activity, dose response, H4 neuroglioma cells, luminescence (AID 1990); type: functional, cell-based
HT-1080 = experiment: cytotoxicity in HT1080 fibrosarcoma cells, cell-based, fluorescence readout (AID 620); type: functional; details: Homo sapiens
[17] = Luminescence Cell-Based Dose Response HTS to Identify Inhibitors of 5'UTR Stem-Loop Driven Prion Protein mRNA Translation in H4 Neuroglioblastoma Cells. [Related pubchem assays: 1827 (Project Summary), 1813 (Primary HTS)]; type: functional
[18] = inhibitors of SNCA 5'UTR-driven translation, confirmation, luminescence, H4 neuroglioblastoma cells, dose confirmation (AID 2454); type: functional, cell-based;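 also: H4 neuroglioblastoma cells carrying an alpha-synuclein 5'UTR luciferase reporter; potency for inhibition of the luciferase signal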
[19] = inhibitors of SNCA 5'UTR-driven reporter translation, confirmation, H4 neuroglioma cells, luminescence (AID 1988); type: functional, cell-based
cells = type: functional, cell-based
[20] = target: Glyceraldehyde-3-phosphate dehydrogenase (Homo sapiens, UniProt P04406)
[21] = luciferase reporter signal reduction – luminescence, H4-C neuroglioblastoma cells, dose response (AID 2458); type: functional, cell-based;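 also: H4 neuroglioblastoma cells stably carrying a luciferase reporter gene fusion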
HeLa = experiment: Cytotoxicity counterscreen assay for transcriptional activators of heat shock protein 70 (Hsp70). [Related pubchem assays: 1203, 1252 ]; type: functional; details: Homo sapiens;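 also: cells exposed to compound for 16 hours before readout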

Chain of Luciferin 4-monooxygenase (P08659 whole entry): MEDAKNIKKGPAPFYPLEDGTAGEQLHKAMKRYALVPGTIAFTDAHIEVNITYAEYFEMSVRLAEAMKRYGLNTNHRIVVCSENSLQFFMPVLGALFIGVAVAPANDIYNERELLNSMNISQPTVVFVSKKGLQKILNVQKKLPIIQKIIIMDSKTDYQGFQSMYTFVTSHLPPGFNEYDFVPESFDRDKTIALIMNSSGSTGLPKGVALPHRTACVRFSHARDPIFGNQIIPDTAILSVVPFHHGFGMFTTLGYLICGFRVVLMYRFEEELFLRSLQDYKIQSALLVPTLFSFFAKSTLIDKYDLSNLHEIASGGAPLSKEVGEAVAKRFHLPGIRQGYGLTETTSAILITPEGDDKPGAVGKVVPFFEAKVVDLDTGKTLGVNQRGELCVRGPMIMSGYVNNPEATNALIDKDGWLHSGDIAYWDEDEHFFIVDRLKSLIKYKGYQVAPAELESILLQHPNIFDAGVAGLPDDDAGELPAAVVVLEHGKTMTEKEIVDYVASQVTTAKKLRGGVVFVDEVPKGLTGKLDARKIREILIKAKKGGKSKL
T2 sequence (Q9UBE0 whole entry): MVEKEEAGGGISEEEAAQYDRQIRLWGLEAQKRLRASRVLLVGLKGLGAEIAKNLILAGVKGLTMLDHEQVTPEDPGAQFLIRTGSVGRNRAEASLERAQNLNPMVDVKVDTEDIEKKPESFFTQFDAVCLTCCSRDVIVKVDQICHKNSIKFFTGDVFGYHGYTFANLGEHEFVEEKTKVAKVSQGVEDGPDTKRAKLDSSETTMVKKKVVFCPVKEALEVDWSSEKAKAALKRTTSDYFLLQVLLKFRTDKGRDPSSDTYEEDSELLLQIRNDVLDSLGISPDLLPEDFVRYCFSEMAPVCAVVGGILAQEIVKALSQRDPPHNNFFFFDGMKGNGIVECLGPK
T2 sequence (Q9UBT2 whole entry): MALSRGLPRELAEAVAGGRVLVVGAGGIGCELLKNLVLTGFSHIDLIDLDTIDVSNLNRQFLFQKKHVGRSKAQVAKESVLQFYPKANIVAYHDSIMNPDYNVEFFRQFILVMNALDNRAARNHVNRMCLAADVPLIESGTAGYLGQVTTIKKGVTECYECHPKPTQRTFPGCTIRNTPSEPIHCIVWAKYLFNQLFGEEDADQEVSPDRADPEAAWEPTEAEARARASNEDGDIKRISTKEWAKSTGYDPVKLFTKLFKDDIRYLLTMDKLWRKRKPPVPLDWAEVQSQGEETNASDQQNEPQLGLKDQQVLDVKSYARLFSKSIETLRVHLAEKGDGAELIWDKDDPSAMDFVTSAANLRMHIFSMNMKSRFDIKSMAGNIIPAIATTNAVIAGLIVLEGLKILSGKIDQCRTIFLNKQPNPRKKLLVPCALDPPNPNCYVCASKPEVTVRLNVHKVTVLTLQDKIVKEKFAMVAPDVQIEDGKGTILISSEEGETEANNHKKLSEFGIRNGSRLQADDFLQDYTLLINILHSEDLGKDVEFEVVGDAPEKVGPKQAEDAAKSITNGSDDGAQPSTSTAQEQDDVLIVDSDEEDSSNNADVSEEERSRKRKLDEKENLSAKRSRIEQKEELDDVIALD
Chain of Serine/threonine-protein phosphatase PP1-alpha catalytic subunit (P62136 whole entry): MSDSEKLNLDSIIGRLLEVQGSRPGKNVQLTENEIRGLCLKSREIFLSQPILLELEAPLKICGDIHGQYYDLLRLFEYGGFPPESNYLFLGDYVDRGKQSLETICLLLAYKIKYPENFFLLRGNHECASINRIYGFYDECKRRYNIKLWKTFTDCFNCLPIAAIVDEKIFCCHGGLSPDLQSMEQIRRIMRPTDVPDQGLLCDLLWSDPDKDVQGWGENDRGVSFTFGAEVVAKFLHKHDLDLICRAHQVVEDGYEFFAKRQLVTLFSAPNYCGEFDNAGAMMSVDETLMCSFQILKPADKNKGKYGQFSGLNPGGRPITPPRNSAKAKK
Chain of Peroxisome proliferator-activated receptor gamma/Nuclear receptor coactivator 1 (P37231 whole entry): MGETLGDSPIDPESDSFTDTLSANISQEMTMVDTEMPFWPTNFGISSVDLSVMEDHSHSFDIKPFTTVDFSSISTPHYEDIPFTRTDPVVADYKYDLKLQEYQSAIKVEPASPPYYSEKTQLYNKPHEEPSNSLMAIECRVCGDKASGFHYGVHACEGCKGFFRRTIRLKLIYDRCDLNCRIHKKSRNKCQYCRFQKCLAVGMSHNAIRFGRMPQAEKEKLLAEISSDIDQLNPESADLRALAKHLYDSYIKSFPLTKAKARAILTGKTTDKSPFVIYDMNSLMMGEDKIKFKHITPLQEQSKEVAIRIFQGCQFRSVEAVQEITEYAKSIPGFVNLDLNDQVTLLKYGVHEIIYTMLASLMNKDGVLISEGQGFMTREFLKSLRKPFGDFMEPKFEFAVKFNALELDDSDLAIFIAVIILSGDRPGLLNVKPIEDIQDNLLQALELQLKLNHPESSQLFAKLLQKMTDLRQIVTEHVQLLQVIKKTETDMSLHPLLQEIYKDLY
Chain of Peroxisome proliferator-activated receptor gamma/Nuclear receptor coactivator 1 (Q15788 whole entry, further chain): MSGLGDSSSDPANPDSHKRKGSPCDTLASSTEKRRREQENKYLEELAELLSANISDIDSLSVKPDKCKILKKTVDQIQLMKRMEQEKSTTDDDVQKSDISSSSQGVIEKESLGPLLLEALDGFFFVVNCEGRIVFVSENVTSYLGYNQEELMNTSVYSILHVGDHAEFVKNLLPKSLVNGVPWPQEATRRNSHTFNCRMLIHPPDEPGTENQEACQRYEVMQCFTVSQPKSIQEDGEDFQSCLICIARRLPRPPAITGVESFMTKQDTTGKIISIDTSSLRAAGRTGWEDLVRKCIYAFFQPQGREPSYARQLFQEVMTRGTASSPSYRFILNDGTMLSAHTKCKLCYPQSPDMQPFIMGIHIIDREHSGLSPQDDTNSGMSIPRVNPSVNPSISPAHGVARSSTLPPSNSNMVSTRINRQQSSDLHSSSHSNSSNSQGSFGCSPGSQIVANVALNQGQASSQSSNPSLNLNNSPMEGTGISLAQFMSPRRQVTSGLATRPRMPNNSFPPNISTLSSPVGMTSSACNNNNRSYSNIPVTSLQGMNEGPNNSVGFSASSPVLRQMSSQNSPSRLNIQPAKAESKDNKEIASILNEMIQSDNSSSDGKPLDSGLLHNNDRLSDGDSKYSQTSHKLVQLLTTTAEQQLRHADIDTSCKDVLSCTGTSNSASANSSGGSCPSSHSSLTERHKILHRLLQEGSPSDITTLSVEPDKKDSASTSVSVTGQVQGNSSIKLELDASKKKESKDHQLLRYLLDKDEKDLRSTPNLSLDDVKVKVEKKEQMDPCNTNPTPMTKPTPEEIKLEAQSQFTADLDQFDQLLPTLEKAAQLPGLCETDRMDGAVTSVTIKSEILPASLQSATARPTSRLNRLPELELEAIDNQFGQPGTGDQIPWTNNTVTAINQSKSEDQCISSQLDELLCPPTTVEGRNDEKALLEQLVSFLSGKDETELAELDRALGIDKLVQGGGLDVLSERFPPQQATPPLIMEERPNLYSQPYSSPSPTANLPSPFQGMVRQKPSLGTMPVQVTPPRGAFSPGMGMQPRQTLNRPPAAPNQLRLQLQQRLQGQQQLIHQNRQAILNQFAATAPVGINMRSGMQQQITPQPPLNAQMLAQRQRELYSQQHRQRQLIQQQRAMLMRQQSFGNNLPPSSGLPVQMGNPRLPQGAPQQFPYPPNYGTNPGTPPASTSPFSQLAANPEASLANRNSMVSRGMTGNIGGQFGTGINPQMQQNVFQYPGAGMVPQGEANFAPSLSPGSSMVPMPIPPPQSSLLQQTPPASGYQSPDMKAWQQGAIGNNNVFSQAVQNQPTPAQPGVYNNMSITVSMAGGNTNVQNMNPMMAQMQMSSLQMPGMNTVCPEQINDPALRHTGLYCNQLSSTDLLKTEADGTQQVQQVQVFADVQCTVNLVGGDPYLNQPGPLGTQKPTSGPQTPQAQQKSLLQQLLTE
Chain of Polyadenylate-binding protein 1 (P11940 whole entry): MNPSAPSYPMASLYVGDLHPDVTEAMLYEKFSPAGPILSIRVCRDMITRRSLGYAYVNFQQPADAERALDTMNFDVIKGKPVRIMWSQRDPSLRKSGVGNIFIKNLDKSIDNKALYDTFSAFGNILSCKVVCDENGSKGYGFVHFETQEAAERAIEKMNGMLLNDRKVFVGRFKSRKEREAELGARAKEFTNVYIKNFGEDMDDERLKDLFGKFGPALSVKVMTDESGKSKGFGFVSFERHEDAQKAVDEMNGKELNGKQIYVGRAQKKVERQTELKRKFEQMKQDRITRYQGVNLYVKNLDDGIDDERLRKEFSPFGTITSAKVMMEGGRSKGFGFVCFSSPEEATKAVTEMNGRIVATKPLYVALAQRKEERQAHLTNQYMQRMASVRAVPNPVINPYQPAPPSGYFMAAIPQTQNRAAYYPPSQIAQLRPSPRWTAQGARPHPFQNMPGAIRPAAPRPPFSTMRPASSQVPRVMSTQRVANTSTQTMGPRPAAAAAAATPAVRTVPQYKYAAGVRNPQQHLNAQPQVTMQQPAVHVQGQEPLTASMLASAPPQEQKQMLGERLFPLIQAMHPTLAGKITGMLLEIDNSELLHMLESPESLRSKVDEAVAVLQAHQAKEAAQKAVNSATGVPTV

CCc1ccc2c(c1)C(c1ccc([N+](=O)[O-])cc1)=NNC(c1ccc(C)cc1)=N2
IC50 [1]: 15.6 µM (not active) | CC50 [2]: > 40 µM (active)

N#Cc1c(-c2ccc(Cl)cc2)cc(-c2cccs2)nc1SCC(=O)O
IC50 (SUMO-activating enzyme [3]): > 100 µM (inactive) | IC50 [4]: > 67 µM (not active) | IC50 [5]: 6.66 µM (active) | IC50 (SUMO-activating enzyme [6]): 8.73 µM (active) | IC50 [7]: 10.7 µM (active) | IC50 [8]: 39.7 µM (active)

O=C(CSc1ncnc2c1oc1ccccc12)Nc1cccc(F)c1
IC50 [9]: > 148 µM (not active) | EC50 [10]: > 26.5 µM (inactive) | EC50 [11]: > 79.4 µM (not active) | IC50 [12]: > 111 µM (not active) | EC50 [13]: 15.6 µM (not active)

Cn1c(O)c(N=NC(=O)c2cc(-c3cccs3)nc3ccccc23)c2ccccc21
EC50 (Streptococcus): 16.7 µM (active) | IC50 [9]: 2.73 µM (active) | EC50 [14]: 9.12 µM (active) | IC50 [12]: > 111 µM (not active) | EC50 (Streptokinase A): > 150 µM (not active)

CCOC(=O)C1CCCCN1C(=O)CCc1c(C)nc2cc(-c3ccccc3)nn2c1C (stereo not given)
EC50 [15]: > 100 µM (not active) | EC50 [16]: < 0.1 µM (active) | EC50 (HT-1080): > 50 µM (not active) | EC50 [17]: 11.1 µM (active) | EC50 [18]: 1.33 µM (active) | EC50 [19]: < 0.1 µM (active) | EC50 (cells): > 12 µM (not active) | IC50 [20]: > 100 µM (not active) | EC50 [21]: 0.972 µM (active)

Cc1ccc(O)c(/C=N/NC(=O)C2=NNC(c3ccccc3)(c3ccccc3)C2)c1
EC50 [15]: 5.52 µM (active) | EC50 (HT-1080): > 50 µM (not active)

COCCn1c(C)cc(C(=O)CSc2nc3ccccc3c(=O)n2C(C)COC)c1C (stereo not given)
CC50 (HeLa): > 99 µM (not active)

Source: ChEMBL document CHEMBL1201862, “PubChem BioAssay data set” (2004)
